In PMC6299216, “Gain-of-Function Mutations in the Phospholipid Flippase MprF Confer Specific Daptomycin Resistance” (mBio, 2018):
Converted amounts (≈) assume the structure as drawn. Ends that are not written are not given here.

Experiments:
[1] = tested on: S. aureus with chromosomal deletion of MprF; settings: cited from earlier work
Text: Daptomycin is the first approved drug of a new class of calcium-dependent lipopeptide antibiotics, whose entire mode of action is still not fully understood ([6], [8]). It interacts with phosphatidylglycerol (PG) and interferes with bacterial fluid membrane microdomains, which leads to inhibition of cell wall synthesis ([9]). However, it is unclear if its activity requires a specific docking molecule in the membrane ([9], [10]). How point mutations in different S. aureus proteins contribute to or cause DAP-R remains equally elusive ([6]). Several proteins involved in the synthesis, regulation, ...

[2] = tested on: S. aureus ΔmprF mutant expressing R112A-T345A MprF (pRB-R112A-T345A); assay: MIC, MIC test strips, flippase-inactivated MprF; type: cell-based, Staphylococcus aureus
Text: (§1) The common laboratory strain, methicillin-susceptible S. aureus SA113 (ATCC 35556) and its mprF knockout derivative SA113ΔmprF have been described recently ([17]). Point mutations in mprF were introduced by site-directed mutagenesis in Escherichia coli using E. coli/S. aureus shuttle vector pRB474 bearing mprF via the use of a QuikChange kit (Stratagene, La Jolla, CA, USA) (see Table S3 in the supplemental material), as described recently ([20]). Mutated derivatives of mprF were cloned in pRB474mprF and transferred into strain SA113ΔmprF. Expression of the pRB474mprF variants was mediated by the use of constitutive Bacillus subtilis promoter vegII. Plasmids were maintained with 10 μg/ml chloramphenicol in all studies, with the exception of the MIC assays.
(§2) The MICs of daptomycin, bacitracin, polymyxin B, vancomycin, and oxacillin were determined with MIC test strips from Liofilchem according to the manufacturer’s advice. The MICs of friulimicin B, nisin, and gallidermin were determined by broth microdilution in Mueller-Hinton broth (MHB) in a 24-well plate under shaking conditions. Friulimicin B and daptomycin MICs were determined in the presence of 50 mg/liter CaCl2. Other MICs were determined in the presence of 50 mg/liter CaCl2 when indicated.

[3] = tested on: S. aureus ΔmprF mutant expressing E206A-T345A MprF (pRB-E206A-T345A); assay: MIC, MIC test strips, flippase-inactivated MprF; type: cell-based, Staphylococcus aureus
Text: as §1, §2

[4] = tested on: S. aureus ΔmprF mutant expressing D71A-T345A MprF (pRB-D71A-T345A); assay: MIC, MIC test strips, flippase-inactivated MprF; type: cell-based, Staphylococcus aureus
Text: as §1, §2

[5] = tested on: S. aureus 113 (SA113) mprF mutant expressing parental (wild-type) MprF (pRBmprF); type: cell-based, Staphylococcus aureus; settings: parental MprF sequence on plasmid in SA113 mprF mutant; MIC test strips; 50 mg/liter CaCl2; mean of at least five independent experiments (Fig. 1B)
Text: as §1, §2

[6] = tested on: S. aureus 113 (SA113) mprF mutant expressing T345A-MprF (pRB-T345A); type: cell-based, Staphylococcus aureus; settings: T345A mutation in MprF on plasmid in SA113 mprF mutant; MIC test strips; 50 mg/liter CaCl2; mean of at least five independent experiments (Fig. 1B)
Text: as §1, §2

[7] = tested on: S. aureus 113 (SA113) mprF mutant expressing V351E-MprF (pRB-V351E); type: cell-based, Staphylococcus aureus; settings: V351E mutation in MprF on plasmid in SA113 mprF mutant; MIC test strips; 50 mg/liter CaCl2; mean of at least five independent experiments (Fig. 1B)
Text: as §1, §2

[8] = tested on: S. aureus 113 (SA113) mprF mutant expressing MprF with S295L, P314L, S337L, I420N or L826F; assay: MIC, MIC test strips (Liofilchem); type: cell-based, Staphylococcus aureus; settings: mutations S295L, I420N and L826F, 50 mg/liter CaCl2 (Fig. 1B)
Text: as §1, §2

[9] = tested on: S. aureus ΔmprF mutant with or without functional MprF; assay: MIC, MIC test strips: mprF deletion mutant versus functional MprF; type: cell-based, Staphylococcus aureus; settings: daptomycin with 50 mg/liter CaCl2, three independent experiments (Fig. 4A)
Text: as §1, §2

[10] = tested on: S. aureus ΔmprF mutant with or without functional MprF; assay: MIC, broth microdilution: mprF deletion mutant versus functional MprF; type: cell-based, Staphylococcus aureus; settings: broth microdilution in Mueller-Hinton broth, 24-well plate, shaking; friulimicin B with 50 mg/liter CaCl2; three independent experiments (Fig. 4A)
Text: as §1, §2

[11] = tested on: S. aureus ΔmprF mutant expressing T345A-MprF; assay: MIC, broth microdilution; type: cell-based, Staphylococcus aureus; settings: T345A mutation; broth microdilution in MHB; 50 mg/liter CaCl2; three independent experiments (Fig. 4A)
Text: as §1, §2

[12] = tested on: S. aureus ΔmprF mutant expressing V351E-MprF; assay: MIC, broth microdilution; type: cell-based, Staphylococcus aureus; settings: V351E mutation; broth microdilution in MHB; 50 mg/liter CaCl2; three independent experiments (Fig. 4A)
Text: as §1, §2

CCCCCCCCCC(=O)N[C@@H](Cc1c[nH]c2ccccc12)C(=O)N[C@H](CC(N)=O)C(=O)N[C@@H](CC(=O)O)C(=O)N[C@@H]1C(=O)NCC(=O)N[C@@H](CCCN)C(=O)N[C@@H](CC(=O)O)C(=O)N[C@H](C)C(=O)N[C@@H](CC(=O)O)C(=O)NCC(=O)N[C@H](CO)C(=O)N[C@@H]([C@H](C)CC(=O)O)C(=O)N[C@@H](CC(=O)c2ccccc2N)C(=O)O[C@@H]1C [daptomycin]
susceptibility after chromosomal deletion of MprF [1]: hypersusceptibility | ability of T345A to increase the MIC of daptomycin ([2]; T345A in combination with R112A, 50 mg/liter CaCl2, three independent experiments (Fig. 5B)): only slightly increased MIC | ability of T345A to increase the MIC of daptomycin ([3]; T345A in combination with R206A (so in the source), 50 mg/liter CaCl2, three independent experiments (Fig. 5B)): not able to increase the daptomycin MIC | ability of T345A to increase the MIC of daptomycin ([4]; T345A in combination with D71A, 50 mg/liter CaCl2, three independent experiments (Fig. 5B)): not able to increase the daptomycin MIC | MIC [5]: 1 µg/mL (≈ 0.617 µM) | MIC [6]: 3 µg/mL (≈ 1.85 µM) | MIC [7]: 3 µg/mL (≈ 1.85 µM) | daptomycin susceptibility compared to the parental MprF sequence [8]: did not alter daptomycin susceptibility | ability to inhibit S. aureus growth (MIC) with functional MprF versus mprF deletion mutant [9]: reduced in the presence of a functional MprF protein

Cc1onc(-c2ccccc2)c1C(=O)N[C@@H]1C(=O)N2[C@@H]1SC(C)(C)[C@@H]2C(=O)O [oxacillin]
ability to inhibit S. aureus growth (MIC) with functional MprF versus mprF deletion mutant [9]: not affected by MprF

bacitracin
MIC of bacitracin as indicator of flippase activity, compared to strains expressing a functional MprF ([2]; T345A with flippase-inactivating mutation R112A, three independent experiments (Fig. 5A)): hypersusceptible | MIC of bacitracin as indicator of flippase activity, compared to strains expressing a functional MprF ([3]; T345A with flippase-inactivating mutation E206A, three independent experiments (Fig. 5A)): hypersusceptible | MIC of bacitracin as indicator of flippase activity, compared to strains expressing a functional MprF ([4]; T345A with flippase-inactivating mutation D71A, three independent experiments (Fig. 5A)): hypersusceptible | ability to inhibit S. aureus growth (MIC) with functional MprF versus mprF deletion mutant [9]: reduced in the presence of a functional MprF protein

friulimicin B
ability to inhibit S. aureus growth (MIC) with functional MprF versus mprF deletion mutant [10]: reduced in the presence of a functional MprF protein | cross-resistance (MIC versus wild-type MprF) [11]: cross-resistance | cross-resistance (MIC versus wild-type MprF) [12]: cross-resistance

gallidermin (IASKFLCTPGCAKTGSFNSYCC; also: lantibiotic: thioether rings and dehydro residues, places not given here; UniProt P21838 31-52, looked up)
ability to inhibit S. aureus growth (MIC) with functional MprF versus mprF deletion mutant [10]: reduced in the presence of a functional MprF protein

nisin (ITSISLCTPGCKTGALMGCNMKTATCHCSIHVSK; also: lantibiotic: thioether rings and dehydro residues, places not given here; UniProt P13068 24-57, looked up)
ability to inhibit S. aureus growth (MIC) with functional MprF versus mprF deletion mutant [10]: reduced in the presence of a functional MprF protein

polymyxin B
ability to inhibit S. aureus growth (MIC) with functional MprF versus mprF deletion mutant [9]: reduced in the presence of a functional MprF protein

vancomycin
ability to inhibit S. aureus growth (MIC) with functional MprF versus mprF deletion mutant [9]: reduced in the presence of a functional MprF protein
